Measured values from paper PMC11822664, “First‐In‐Human Dose Finding Study of Venadaparib (IDX‐1197), a Potent and Selective PARP Inhibitor, in Patients With Advanced Solid Tumors” (Cancer Medicine, 2025).

Test: Plasma pharmacokinetics, noncompartmental analysis (Day 1 and Day 14)
Format: in vivo, human
Conditions: for Tmax: median (min-max)
Method: Pharmacokinetic and pharmacodynamic studies were performed during the first cycle of treatment. Plasma samples were analyzed for venadaparib concentration using liquid‐liquid extraction followed by high‐performance liquid chromatography, with detection by mass spectrometry. The plasma concentration–time data were analyzed using noncompartmental analysis (WinNonLin, version 8.0, SAS version 9.4 and R version 3.6.3) to derive pharmacokinetic parameters after the first dose (single‐dose parameters) and after the dose on Day 14 (multiple‐dose parameters). Pharmacodynamic studies were performed by evaluating Poly (ADP‐ribose) in peripheral blood mononuclear cells and quantifying tumor‐tissue lysates using the HT PARP in vivo Pharmacodynamic ELISA Kit II (R&D Systems, 4520‐096‐K).

[1] = day 1, Cohort 1: 2 mg once daily, 2 weeks on 1 week off, n=3, mean±SD
[2] = day 1, Cohort 2: 5 mg once daily, 2 weeks on 1 week off, n=3, mean±SD
[3] = day 1, Cohort 3: 10 mg once daily, 2 weeks on 1 week off, n=3, mean±SD
[4] = day 1, Cohort 4: 20 mg once daily, 2 weeks on 1 week off, n=3, mean±SD
[5] = day 1, Cohort 5: 20 mg once daily continuously, n=3, mean±SD
[6] = day 1, Cohort 6: 40 mg once daily continuously, n=3, mean±SD
[7] = day 1, Cohort 7: 80 mg once daily continuously, n=3, mean±SD
[8] = day 1, Cohort 8: 120 mg once daily continuously, n=3, mean±SD
[9] = day 1, Cohort 9: 160 mg once daily continuously, n=4, mean±SD
[10] = day 1, Cohort 10: 240 mg once daily continuously, n=3, mean±SD
[11] = day 14, Cohort 1: 2 mg once daily, 2 weeks on 1 week off, n=3, mean±SD

Question: With `O=C(c1cc(Cc2n[nH]c(=O)c3ccccc23)ccc1F)N1CC(CNC2CC2)C1` [venadaparib, Venadaparib] as the compound, how does the “average increase in drug exposure” value (after 14 days of daily administration) read?
Answer: 99%

Question: What about the “Time to steady state” value (after initiation of daily dosing) of the same compound?
Answer: approximately 2 weeks

Question: And the AUCinf [1]?
Answer: 780.62±401.58 (51.4%) [318.42-043.92] h*ug/L

Question: What about the AUClast [1] of the same compound?
Answer: 593.00±274.64 (46.3%) [291.48-828.86] h*ug/L

Question: What about the Cmax [1] of the same compound?
Answer: 84.50±54.00 (63.9%) [33.40-141.00] ng/mL

Question: And the T1/2β [1]?
Answer: 11.64±4.54 (39.0%) [6.72-15.66] h

Question: What about the Vz [1] of the same compound?
Answer: 47.20±13.15 (27.8%) [34.62-60.85] L

Question: And the Tmax (day 1, Cohort 1: 2 mg once daily, 2 weeks on 1 week off, n=3)?
Answer: 1.92 (1.03-1.97) h

Question: What about the AUCinf [2] of the same compound?
Answer: 1827.86±1666.87 (84.7%) [33.40-141.00] h*ug/L

Question: What about the AUClast [2] of the same compound?
Answer: 1340.46±1006.85 (84.7%) [33.40-141.00] h*ug/L

Question: What about the Cmax [2] of the same compound?
Answer: 180.00±48.57 (27.0%) [133.00-230.00] ng/mL

Question: What about the T1/2β [2] of the same compound?
Answer: 10.52±3.54 (33.7%) [6.97-14.06] h

Question: And the Vz [2]?
Answer: 57.08±26.96 (84.7%) [33.40-141.00] L

Question: What about the Tmax (day 1, Cohort 2: 5 mg once daily, 2 weeks on 1 week off, n=3) of the same compound?
Answer: 3.00 (0.55-4.00) h

Question: And the AUCinf [3]?
Answer: 3649.06±4836.80 (132.5%) [144.88-9167.47] h*ug/L

Question: What about the AUClast [3] of the same compound?
Answer: 2519.97±3026.42 (120.1%) [127.22-5922.09] h*ug/L

Question: What about the Cmax [3] of the same compound?
Answer: 204.17±173.02 (84.7%) [33.40-141.00] ng/mL

Question: And the T1/2β [3]?
Answer: 9.94±3.14 (31.6%) [7.23-13.39] h

Question: And the Vz [3]?
Answer: 333.81±505.10 (151.3%) [21.07-916.53] L

Question: And the Tmax (day 1, Cohort 3: 10 mg once daily, 2 weeks on 1 week off, n=3)?
Answer: 3.00 (2.00-8.02) h

Question: And the AUCinf [4]?
Answer: 3039.02±674.82 (22.2%) [2368.04-3717.62] h*ug/L

Question: What about the AUClast [4] of the same compound?
Answer: 2754.42±727.50 (26.4%) [1991.23-3440.00] h*ug/L

Question: And the Cmax [4]?
Answer: 380.00±146.81 (38.6%) [228.00-521.00] ng/mL

Question: What about the T1/2β [4] of the same compound?
Answer: 7.91±2.11 (26.7%) [6.25-10.28] h

Question: What about the Vz [4] of the same compound?
Answer: 80.18±39.12 (48.8%) [55.73-125.29] L

Question: What about the Tmax (day 1, Cohort 4: 20 mg once daily, 2 weeks on 1 week off, n=3) of the same compound?
Answer: 3.00 (2.08-4.00) h

Question: What about the AUCinf [5] of the same compound?
Answer: 12875.06±5816.24 (45.5%) [7832.01-19189.58] h*ug/L

Question: What about the AUClast [5] of the same compound?
Answer: 10232.09±3651.74 (35.7%) [7292.97-14320.11] h*ug/L

Question: What about the Cmax [5] of the same compound?
Answer: 1128.00±443.52 (39.3%) [862.00-1640.00] ng/mL

Question: And the T1/2β [5]?
Answer: 9.98±3.76 (37.7%) [5.82-13.13] h

Question: And the Vz [5]?
Answer: 23.05±4.34 (18.8%) [19.75-27.97] L

Question: And the Tmax (day 1, Cohort 5: 20 mg once daily continuously, n=3)?
Answer: 2.93 (0.50-3.00) h

Question: What about the AUCinf [6] of the same compound?
Answer: 15825.90±13925.93 (88.0%) [7229.41-31893.03] h*ug/L

Question: And the AUClast [6]?
Answer: 14369.29±12181.96 (84.8%) [6801.11-28421.88] h*ug/L

Question: What about the Cmax [6] of the same compound?
Answer: 2043.33±1547.82 (75.7%) [1110.00-3830.00] ng/mL

Question: What about the T1/2β [6] of the same compound?
Answer: 6.87±0.36 (5.3%) [6.64-7.29] h

Question: What about the Vz [6] of the same compound?
Answer: 37.48±21.36 (57.0%) [13.19-53.37] L

Question: What about the Tmax (day 1, Cohort 6: 40 mg once daily continuously, n=3) of the same compound?
Answer: 2.00 (2.00-3.00) h

Question: What about the AUCinf [7] of the same compound?
Answer: 31699.75±12751.32 (40.2%) [17104.01-40676.73] h*ug/L

Question: And the AUClast [7]?
Answer: 27733.70±10788.09 (38.9%) [15336.37-34987.13] h*ug/L

Question: What about the Cmax [7] of the same compound?
Answer: 3643.33±582.27 (16.0%) [2980.00-4070.00] ng/mL

Question: What about the T1/2β [7] of the same compound?
Answer: 8.29±0.47 (5.7%) [7.81-8.75] h

Question: And the Vz [7]?
Answer: 35.61±20.31 (57.0%) [23.61-59.06] L

Question: What about the Tmax (day 1, Cohort 7: 80 mg once daily continuously, n=3) of the same compound?
Answer: 1.03 (1.00-3.00) h

Question: What about the AUCinf [8] of the same compound?
Answer: 28572.20±24412.45 (85.4%) [12537.00-56667.70] h*ug/L

Question: What about the AUClast [8] of the same compound?
Answer: 23020.92±16230.34 (70.5%) [12129.81-41674.88] h*ug/L

Question: And the Cmax [8]?
Answer: 2923.33±1179.25 (40.3%) [2030.00-4260.00] ng/mL

Question: And the T1/2β [8]?
Answer: 8.56±4.44 (51.9%) [4.97-13.53] h

Question: And the Vz [8]?
Answer: 61.75±17.99 (29.1%) [41.34-75.31] L

Question: What about the Tmax (day 1, Cohort 8: 120 mg once daily continuously, n=3) of the same compound?
Answer: 2.00 (1.95-2.07) h

Question: What about the AUCinf [9] of the same compound?
Answer: 48298.24±7488.56 (15.5%) [39493.27-55858.21] h*ug/L

Question: And the AUClast [9]?
Answer: 42174.71±5663.76 (13.4%) [35508.61-48321.59] h*ug/L

Question: And the Cmax [9]?
Answer: 5295.00±628.68 (11.9%) [4820.00-6220.00] ng/mL

Question: And the T1/2β [9]?
Answer: 8.15±1.31 (16.1%) [6.18-8.88] h

Question: And the Vz [9]?
Answer: 39.02±4.02 (10.3%) [36.11-44.88] L

Question: And the Tmax (day 1, Cohort 9: 160 mg once daily continuously, n=4)?
Answer: 2.00 (1.00-3.00) h

Question: And the AUCinf [10]?
Answer: 37514.17±11745.33 (31.3%) [23968.05-44861.59] h*ug/L

Question: What about the AUClast [10] of the same compound?
Answer: 35064.82±10936.96 (31.2%) [22440.89-41684.26] h*ug/L

Question: What about the Cmax [10] of the same compound?
Answer: 4243.33±1097.38 (25.9%) [2980.00-4960.00] ng/mL

Question: What about the T1/2β [10] of the same compound?
Answer: 5.86±0.27 (4.5%) [5.63-6.15] h

Question: And the Vz [10]?
Answer: 58.25±20.01 (34.4%) [45.93-81.34] L

Question: And the Tmax (day 1, Cohort 10: 240 mg once daily continuously, n=3)?
Answer: 2.03 (1.95-3.87) h

Question: And the “AUCinf,ss” value [11]?
Answer: 1736.03±1605.80 (92.5%) [457.71-3538.38] h*ug/L

Question: What about the “AUClast,ss” value [11] of the same compound?
Answer: 1364.99±1236.83 (90.6%) [418.50-2764.45] h*ug/L

Question: What about the “Cmax,ss” value [11] of the same compound?
Answer: 164.83±158.82 (96.4%) [55.40-347.00] ng/mL

Question: And the T1/2β [11]?
Answer: 10.12±3.11 (30.8%) [6.53-12.16] h

Question: And the “Vd,ss” value [11]?
Answer: 26.55±15.98 (60.2%) [9.51-41.19] L
